Drawing on ChEMBL document CHEMBL1159234, “Antitumor agents, 157. Absolute structures of cumingianosides A-F, antileukemic triterpene glucosides, and structures of the hydrolysates of cumingianoside A” (J Nat Prod, 1995), this text covers EC50 for two molecules.

The subject of the experiment is MOLT-4. Put plainly: Cytotoxicity against human MOLT4 cells. It is filed as functional, cell-based.

The EC50 is the concentration giving half of the maximal effect. Read a low EC50 as greater potency.

With `CC(=O)OC[C@H]1O[C@@H](O[C@@H]2C[C@H]3C(C)(C)[C@H](OC(C)=O)CC[C@]3(C)[C@H]3CC[C@]45C[C@]4(CC[C@H]5[C@@H](C)C[C@@H](O)[C@H](O)C(C)(C)O)[C@@]32C)[C@H](O)[C@@H](O)[C@@H]1O` [CUMINGIANOSIDE A], the EC50 is < 6.25 nM.
For `COC(C)(C)[C@@H](O)[C@H](O)C[C@H](C)[C@@H]1CC[C@]23C[C@]12CC[C@@H]1[C@@]2(C)CC[C@@H](OC(C)=O)C(C)(C)[C@@H]2C[C@@H](O[C@@H]2O[C@H](COC(C)=O)[C@@H](O)[C@H](O)[C@H]2O)[C@]13C` [CUMINGIANOSIDE C], the EC50 is < 4.5 nM.
